Experimental findings from the METLIN SMRT retention time set (Domingo-Almenara et al. 2019) are described below.

Molecules are shown by their SMILES.

A short description of this data set: gradient 5% acetonitrile 3 min, to 50% in 2 min, to 85% in 15 min, held 3 min, 100 µL/min. Conditions: column: Zorbax Extend-C18 2.1 x 50 mm; eluents: water / acetonitrile, 0.1% formic acid. In a few lines:
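Retention times of pure standards were taken from adduct peaks that were selected by computer and manually inspected. Over 3 months, mixtures of ~100 molecules were run by HPLC–quadrupole time-of-flight mass spectrometry in positive and negative ionization mode. The Zorbax Extend-C18 column (2.1 × 50 mm, 1.8 μm) ran at 100 μL/min in water and acetonitrile, each containing 0.1% formic acid, with 40 μL dead volume and 900 μL dwell volume.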
Consider `CN1C(=O)C2CCCCN2c2ccc(C(=O)N3CCC(Cc4ccccc4)CC3)cc21` (stereo not given), for which the RP-LC retention time amounted to 1110 s.

With `COc1ccc(OC)c(C2NC(=O)NC(C)=C2C(=O)OCC(F)(F)C(F)(F)F)c1` (stereo not given), the RP-LC retention time was 801 s.

As for `COCCNC(=O)CN1c2ccccc2NC2=C(C(=O)CC(C)(C)C2)C1c1ccc(F)cc1` (stereo not given), the RP-LC retention time is 752 s. For `Cc1nnc(NC(=O)c2cccc(C(F)(F)F)c2)s1` the value was 749 s; for `O=C(NCC1CCCO1)C1CCN(c2ncccc2-c2nc(-c3ccccc3)no2)CC1` (stereo not given), 870 s.

`CNC(=O)c1sc2nc(-c3ccccc3)c(NCCOC)n2c1C`: the RP-LC retention time came to 637 s. In the case of `O=C(c1ccc(OCC2CCCN(C(=O)C3CCCC3)C2)cc1)N1CCOCC1` (stereo not given), the RP-LC retention time was determined as 750 s. In the case of `CCCN(CC1CCOC1)C(=O)Nc1cccc(Br)c1` (stereo not given), the RP-LC retention time is 876 s. In turn, `CN(C)C(=O)c1nc2ccccn2c1-c1ccsc1` returned an RP-LC retention time of 595 s. For the compound `Cc1ccc(CN2CCN(CC(=O)Nc3cccc(C(F)(F)F)c3)C(=O)C2=O)cc1`, the RP-LC retention time was 939 s. `COc1cc(-c2oc3cc(O)cc(O)c3c(=O)c2O[C@@H]2O[C@H](CO)[C@@H](O)[C@H](O)[C@H]2O)cc(OC)c1O`: the RP-LC retention time worked out at 619 s. In turn, `CCCOc1nc2ccccc2nc1N1CCCC(C(=O)Nc2ccc(F)c(Cl)c2)C1` (stereo not given) yielded an RP-LC retention time of 1130 s. For `COc1ccc(-c2ncc3c(n2)CCN(S(=O)(=O)c2ccc(Cl)s2)C3)cc1`, the RP-LC retention time stood at 1140 s. Consider `COc1ccc2[nH]cc(CCNC(=O)c3cccc(Cl)c3)c2c1`, for which the RP-LC retention time is 840 s. Compound `COc1ccccc1CCC(=O)NCc1ccc2c(c1)ncn2C` had an RP-LC retention time of 595 s. For `Cc1ccc(CNC(=O)Cn2cnc3nc(N4CCCC(C(=O)NC(C)C)C4)sc3c2=O)cc1` (stereo not given) the value was 710 s; for `Cc1ccc(NC(=O)N2CCC(OC3CCN(S(C)(=O)=O)CC3)CC2)cc1`, 738 s; for `CC1=C(C(=O)OCCC#N)C(c2ccccc2Cl)NC(=O)N1` (stereo not given), 668 s.

`CC(C)CNC(=O)N1CCC(CCOc2ccncc2)CC1` registered an RP-LC retention time of 594 s. For `CNC(=O)C1CCCN(C(=O)Nc2ccc(NC(=O)Nc3ccc(F)cc3)cc2)C1` (stereo not given), the RP-LC retention time amounted to 665 s.

The compound `Cc1cccc(NC(=O)Cc2cn3cc(F)ccc3n2)c1C` displayed an RP-LC retention time of 600 s.

In turn, `CC(C(=O)NCCc1ccccc1)n1cnc2nc(N3CCCCC3)ncc2c1=O` (stereo not given) registered an RP-LC retention time of 810 s. For `NS(=O)(=O)c1ccc(CCNCc2ccc(-c3ccc(Cl)cc3)o2)cc1` the value was 810 s; for `O=C(c1ccc(Cn2cncn2)cc1)N1CCN(c2ccccc2F)CC1`, 712 s; for `CC(C)c1ccc(Oc2nccn3c(=O)n(CC(=O)Nc4ccc(Br)cc4)nc23)cc1`, 1090 s.

Turning to `CCNc1nc(NCC)nc(-n2cnc(SC)n2)n1`, the RP-LC retention time is 718 s. `CC(C)[C@H](NC(=O)OCc1ccccc1)C(=O)N[C@H](C=O)Cc1ccccc1`: the RP-LC retention time came to 773 s. On to `Cc1ccc(C(=O)N2CCCCC2c2nc(-c3ccncc3)no2)s1` (stereo not given), for which the RP-LC retention time was 904 s. In turn, `COC(=O)c1ccc(NC(=O)N2CCC3(CC2)N(CC2CC2)C(=O)CS3=O)cc1` (stereo not given) displayed an RP-LC retention time of 674 s. In the case of `CCC(C)NC(=O)Cn1nc(C)c2sc(-c3ccccc3)nc2c1=O` (stereo not given), the RP-LC retention time was determined as 765 s. In the case of `Cc1onc(C(=O)N2CCc3c(c(-c4nncn4C)nn3C)C2)c1Cn1cc(Cl)cn1`, the RP-LC retention time amounted to 649 s. In turn, `CCOC(=O)c1cn[nH]c1S(=O)(=O)N1CCN(c2ccccn2)CC1` returned an RP-LC retention time of 582 s. Take `Cn1c(=O)sc2cc(S(=O)(=O)N3CCC(C(=O)NCc4ccccc4)CC3)ccc21`: the RP-LC retention time was determined as 851 s. Consider `CCCCCOC(=O)CSc1nnc(-c2ccc(Cl)cc2Cl)o1`, for which the RP-LC retention time was determined as 1320 s. Consider `COC(=O)c1cccc(N2C=C(C(=O)N3CCCC3)S(=O)(=O)c3ccc(F)cc32)c1`, for which the RP-LC retention time came out at 788 s. Consider `Cc1ccc(N2CC(c3nc(-c4ccc5c(c4)nc(C)c(=O)n5C)no3)CC2=O)cc1C` (stereo not given), for which the RP-LC retention time amounted to 876 s. `Cc1cc(C)nc(NS(=O)(=O)c2ccc(NC(=O)c3c(F)cccc3F)cc2)n1` gave an RP-LC retention time of 653 s. The compound `Cc1ccn2cc(-c3ccc(NS(=O)(=O)c4ccc(Cl)cc4)cc3)nc2n1` returned an RP-LC retention time of 679 s. In the case of `CCn1c(=O)c(C(=O)NC2CCN(Cc3ccccc3)CC2)nc2cccnc21`, the RP-LC retention time was 606 s. `O=C(O)c1cn(-c2ccccc2F)nn1` yielded an RP-LC retention time of 650 s. `O=C(Cc1cccs1)N1CCN(c2ccc(=O)n(-c3cccc(Cl)c3)n2)CC1`: the RP-LC retention time worked out at 822 s.

Regarding `Cc1ccc(-n2nnnc2CNC(=O)c2cc(Br)ccc2Cl)cc1`, the RP-LC retention time amounted to 835 s.

With `Cc1ccsc1C(=O)Nc1cnc(-c2cccc(Cl)c2)nc1`, the RP-LC retention time was 1130 s.

`CC(=O)N1CCc2cc(N3CC(C(=O)NCc4ccc(Cl)cc4)CC3=O)ccc21` (stereo not given) returned an RP-LC retention time of 720 s.

For the compound `CCN(CC)c1ncc2c(n1)CCC(C(=O)Nc1ccc(OC)c(OC)c1)C2` (stereo not given), the RP-LC retention time turned out to be 660 s. Compound `O=C(NC1CC1)c1cn(-c2ccc(-c3nc(C4CC4)no3)cn2)cn1` yielded an RP-LC retention time of 762 s. The result for `Cc1ccc(NC(=O)Cn2nc(N3CCCC(C)C3)c3ccccc3c2=O)cc1` (stereo not given) reads 1140 s; that for `COc1ccc(NC(=O)c2ccc(-n3cnc(NC(=O)C4CC4)c3)cc2)c(OC)c1`, 726 s; that for `Cn1c(=O)n(C)c2cc(S(=O)(=O)c3ccc(F)cc3)c(NC(=O)Cc3cccc(F)c3)cc21`, 873 s. In turn, `CC1CCN(C(=O)c2csc(-c3ccc(N4CCCC4)nc3)n2)CC1` gave an RP-LC retention time of 660 s.

With `COc1ccc(N2CC(c3nc(-c4ccc(C)cc4)no3)CC2=O)c(OC)c1` (stereo not given), the RP-LC retention time came to 888 s.

For `COc1ccccc1C(=O)N1CCc2cn(C)c3cccc(c23)C1`, the RP-LC retention time was found to be 920 s.

Turning to `O=S(=O)(Nc1cccc(Cl)c1)c1ccc(-c2nnc(C3CCC3)o2)o1`, the RP-LC retention time was 967 s. The compound `CC(C)CN1C(=O)c2cccn2CC1C(=O)NCCCOC1CCN(C(C)C)CC1` (stereo not given) had an RP-LC retention time of 598 s.

For `O=S(=O)(c1ccc(F)cc1)N1CCC(n2cnnc2-c2ccccc2)CC1`, the RP-LC retention time came out at 774 s. On to `Cc1ccc(NC(=O)CC(C)S(=O)(=O)c2ccc3c(c2)CCN3C(=O)C2CC2)cc1N(C)C` (stereo not given), for which the RP-LC retention time was found to be 983 s.

The compound `COCCCNC(=O)Cn1ccc2c(SCc3ccc(C)cc3)nccc21` returned an RP-LC retention time of 648 s. Take `COc1cccc(NC(=O)Cn2ncc3c(c2=O)N(CC2CC2)C(=O)CS3)c1`: the RP-LC retention time was 775 s. `Cc1ccc(S(=O)(=O)N2CCC(n3cnc4c(C)cccc4c3=O)CC2)cc1F` had an RP-LC retention time of 1030 s. The compound `Cc1ccccc1Cn1nc(-c2nc(-c3ccc(F)cc3)no2)ccc1=O` returned an RP-LC retention time of 1130 s.

`Cc1cc(=O)n(CC(=O)NCCn2nc(-c3ccc(F)cc3)ccc2=O)cn1` came in with an RP-LC retention time of 603 s.

In turn, `Cc1cc(C2CCCN2C(=O)Cc2ccc(F)cc2)no1` (stereo not given) came in with an RP-LC retention time of 775 s. The result for `CCN1C(=O)c2cccnc2Sc2cc(NC(=O)c3ccoc3)ccc21` reads 745 s.

Consider `CCc1sc(NC(=O)Cn2nc3c(cc2=O)CCCC3)nc1C(=O)OC`, for which the RP-LC retention time turned out to be 764 s. For the compound `CN1CCN(C(=O)c2noc3c2CC(C(C)(C)C)CC3)CC1` (stereo not given), the RP-LC retention time came to 582 s. The result for `CCCN1CCN(CCNC(=O)C2CCCN(c3ncc(-c4ccc(F)cc4)cn3)C2)CC1` (stereo not given) reads 641 s. In turn, `CN(C)c1cccc(C(=O)N2CCN(C(=O)C3CC3c3ccc4c(c3)OCO4)CC2)c1` (stereo not given) came in with an RP-LC retention time of 715 s. As for `CC(C)n1c(=O)c(NCc2ccccc2Br)nc2ccncc21`, the RP-LC retention time was found to be 699 s. `COc1cccc(OCC(=O)Nc2ccc3c(c2)N(C(=O)c2ccco2)CCC3)c1`: the RP-LC retention time came to 877 s. The result for `Fc1ccccc1CSc1ccc2nnc(-c3cccnc3)n2n1` reads 680 s.

Take `COc1ccc(NC(=O)C2c3ccccc3C(=O)N3CCc4ccccc4C23)cc1OC` (stereo not given): the RP-LC retention time worked out at 762 s. The result for `CN(C)C(=O)c1n[nH]c2c1CN(C(=O)c1ccccc1Br)CC2` reads 623 s. In turn, `CC1(C)CCCC2(C)C(OCCO)=CC(=O)C=C12` (stereo not given) displayed an RP-LC retention time of 794 s. Consider `Cc1ccc(-c2cn3c(CC(=O)NCCc4ccc(Cl)cc4)csc3n2)cc1C`, for which the RP-LC retention time worked out at 734 s. Compound `COc1ccc(Cl)cc1NC(=O)NCC1(CO)CC1` registered an RP-LC retention time of 684 s. Compound `CC1(C)CCSC(/C=C/c2ccccc2)=N1` yielded an RP-LC retention time of 690 s.

With `Cn1c(C2CCN(C(=O)Nc3ccccc3C(F)(F)F)CC2)cc(=O)n2nccc12`, the RP-LC retention time amounted to 654 s. The result for `CC1CCN(C(=O)CN2C(=O)C3CCCCN3c3ccc(C(=O)N(C)C)cc32)CC1` (stereo not given) reads 752 s; that for `CC1CN(C(=O)c2cc3cc([N+](=O)[O-])ccc3s2)CC(C)O1` (stereo not given), 780 s; that for `COC(=O)c1ccc(-c2nc3cnccn3c2Nc2cccc(Cl)c2C)cc1`, 988 s.
